pKd: −log10 of the molar value. Read-outs that look alike come from different tables or passages of the source.
Legend:
[1] = Contact angle of deionized water under cyclooctane; type: physicochemical
fibrinogen = target: T1, fibrinogen (Bos taurus, UniProt P02672+P02676+P12799); assay: SPR adsorption of fibrinogen to SAMs / grafted polymer films; type: binding, bovine; conditions: for % Fiboff (percent decrease in adsorbed protein during 10 minute PBS wash) / dR/dton fibrinogen (maximum initial rate of adsorption) / % MLfib 3 min / % MLfib 30 min: mixed SAM —CONRR′/—CO2H; for % MLfib 3 min: 1 mg/mL fibrinogen flowed 3 min, relative to —CONH(CH2)10CH3/—CO2H SAM; for % MLfib 30 min: 1 mg/mL fibrinogen flowed 30 min
T1 sequence (P02672 20-615): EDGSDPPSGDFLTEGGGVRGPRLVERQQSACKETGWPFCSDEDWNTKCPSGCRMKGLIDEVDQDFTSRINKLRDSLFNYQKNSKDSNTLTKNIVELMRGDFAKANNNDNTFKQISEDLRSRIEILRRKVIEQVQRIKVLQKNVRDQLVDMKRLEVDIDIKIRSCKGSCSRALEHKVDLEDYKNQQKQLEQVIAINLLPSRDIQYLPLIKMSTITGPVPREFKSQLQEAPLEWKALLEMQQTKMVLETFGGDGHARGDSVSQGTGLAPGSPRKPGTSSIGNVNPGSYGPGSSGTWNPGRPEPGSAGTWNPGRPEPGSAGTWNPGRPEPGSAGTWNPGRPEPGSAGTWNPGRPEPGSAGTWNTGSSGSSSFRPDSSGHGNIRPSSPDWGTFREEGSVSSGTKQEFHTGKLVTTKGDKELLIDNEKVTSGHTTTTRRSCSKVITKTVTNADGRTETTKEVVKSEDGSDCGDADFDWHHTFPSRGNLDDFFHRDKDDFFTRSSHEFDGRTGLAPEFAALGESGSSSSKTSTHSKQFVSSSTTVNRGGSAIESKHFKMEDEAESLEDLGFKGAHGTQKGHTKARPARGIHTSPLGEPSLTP
T1 sequence (P02676 1-468): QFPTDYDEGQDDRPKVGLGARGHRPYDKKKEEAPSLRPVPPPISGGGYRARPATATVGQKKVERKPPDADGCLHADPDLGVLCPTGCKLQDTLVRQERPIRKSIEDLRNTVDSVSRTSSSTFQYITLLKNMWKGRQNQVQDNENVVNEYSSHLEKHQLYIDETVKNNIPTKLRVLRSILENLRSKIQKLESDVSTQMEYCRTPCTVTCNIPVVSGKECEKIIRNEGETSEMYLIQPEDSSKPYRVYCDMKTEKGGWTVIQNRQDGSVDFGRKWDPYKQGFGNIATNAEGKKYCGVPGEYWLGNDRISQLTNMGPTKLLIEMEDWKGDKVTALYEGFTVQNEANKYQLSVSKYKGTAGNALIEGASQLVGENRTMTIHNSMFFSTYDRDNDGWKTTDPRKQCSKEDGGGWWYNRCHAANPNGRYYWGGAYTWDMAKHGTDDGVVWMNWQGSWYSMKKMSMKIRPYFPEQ
T1 sequence (P12799 25-444): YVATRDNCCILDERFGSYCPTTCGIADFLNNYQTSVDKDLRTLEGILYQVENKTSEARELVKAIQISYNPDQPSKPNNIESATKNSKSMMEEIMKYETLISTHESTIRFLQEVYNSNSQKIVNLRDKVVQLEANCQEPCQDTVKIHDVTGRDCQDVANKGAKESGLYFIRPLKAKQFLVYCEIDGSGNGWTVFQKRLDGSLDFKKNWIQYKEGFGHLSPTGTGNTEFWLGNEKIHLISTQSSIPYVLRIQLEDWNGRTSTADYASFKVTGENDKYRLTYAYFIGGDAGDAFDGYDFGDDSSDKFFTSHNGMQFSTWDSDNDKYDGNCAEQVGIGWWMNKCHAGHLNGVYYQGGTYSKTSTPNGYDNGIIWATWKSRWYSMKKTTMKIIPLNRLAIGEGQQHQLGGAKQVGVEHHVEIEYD

lysozyme = lysozyme (Gallus gallus, UniProt P00698); assay: SPR adsorption of lysozyme to SAMs / grafted polymer films; type: binding; conditions: for % Lysoff (percent decrease in adsorbed protein during 10 minute PBS wash) / dR/dton lysozyme (maximum initial rate of adsorption) / % MLlys 3 min / % MLlys 30 min: mixed SAM —CONRR′/—CO2H; for % MLlys 3 min: 1 mg/mL lysozyme flowed 3 min; for % MLlys 30 min: 1 mg/mL lysozyme flowed 30 min
CA = CA (Bos taurus, UniProt P00921); conditions: soluble ligand; cited from earlier work
[2] = target: T2, Carbonic anhydrase II (bovine) (Bos taurus, UniProt P00921); assay: SPR binding of CA to immobilised benzene sulfonamide ligands
T2 construct: purchased Sigma (St. Louis, Mo.)
Procedure: Curve 1: CA (5 μM) with a mixture of proteins (each at 0.2 mg/mL) including fibrinogen, RNase, lysozyme, and myoglobin; Curve 2: CA (5 μM); Curve 3: a mixture of proteins as in 1 without CA; Curve 4: CA (5 μM) with 1 mM soluble benzenesulfonamide ligand.

[3] = tested on: mixture of fibrinogen, myoglobin, lysozyme, and RNase; assay: SPR nonspecific adsorption from a mixture of proteins; type: binding; conditions: mixed SAM presenting 13 and —CONH(CH2CH2O)6H/—CO2H groups
[4] = fibrinogen, single-component SAMs (a) and mixed SAMs (b)
[5] = lysozyme, single-component SAMs (a) and mixed SAMs (b)

T2 sequence (P00921 whole entry): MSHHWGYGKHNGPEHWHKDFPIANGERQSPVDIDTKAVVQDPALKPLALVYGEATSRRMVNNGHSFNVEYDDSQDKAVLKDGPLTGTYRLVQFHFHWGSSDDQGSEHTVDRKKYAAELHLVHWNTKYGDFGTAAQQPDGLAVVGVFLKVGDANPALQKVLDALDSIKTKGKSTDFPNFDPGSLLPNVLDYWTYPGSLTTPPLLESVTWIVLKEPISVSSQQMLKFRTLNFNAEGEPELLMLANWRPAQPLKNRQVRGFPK
Sequence of lysozyme (P00698 19-147): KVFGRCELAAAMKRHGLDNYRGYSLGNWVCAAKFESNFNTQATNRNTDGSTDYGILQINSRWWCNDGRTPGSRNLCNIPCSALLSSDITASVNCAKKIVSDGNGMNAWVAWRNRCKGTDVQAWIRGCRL
Sequence of CA (P00921 whole entry): as the sequence (P00921 whole entry) above

Molecule | θco sessile ([1]; mixed SAM) [degrees] | % Fiboff (percent decrease in adsorbed protein during 10 minute PBS wash) (fibrinogen) [%] | dR/dton fibrinogen (maximum initial rate of adsorption) (fibrinogen) [RU/sec] | % MLfib 3 min (fibrinogen) [%] | % MLfib 30 min (fibrinogen) [%] | % Lysoff (percent decrease in adsorbed protein during 10 minute PBS wash) (lysozyme) [%] | dR/dton lysozyme (maximum initial rate of adsorption) (lysozyme) [RU/sec] | % MLlys 3 min (lysozyme) [%] | % MLlys 30 min (lysozyme) [%] | further results
CNCCN(C)C | 49 | 13 ± 2 | 140 ± 40 | 23 ± 4 | 40 ± 2 | 300 ± 30 | 400 ± 200 | 1.9 ± 0.1 | 14 ± 2 | 
CNCCN(C)C(=O)N(C)C | 62 | 15 ± 2 | 60 ± 30 | 5.9 ± 0.2 | 25 ± 1 | 160 ± 10 | 670 ± 50 | 2.1 ± 0.2 | 11 ± 0.5 | 
CNCCN(C)P(=O)(N(C)C)N(C)C | 63 | 19 ± 1 | 120 ± 20 | 0.8 ± 0.1 | 4.3 ± 0.6 | 660 ± 15 | 70 ± 30 | 0.2 ± 0.2 | 0.3 ± 0.2 | 
NCCOCCOCCO [Entry 3b, H(OCH2CH2)3NH2, reference compound] |  |  |  |  |  |  |  |  |  | θco sessile [1]: 50 degrees; % ML 30 min (fibrinogen; [4]): 2%; dR/dt on (fibrinogen; [4]): 30 RU/sec; % ML 3 min (fibrinogen; fibrinogen, single-component SAMs (a, RSH) and mixed SAMs (b, RNH2)): 1%; % Fib off (fibrinogen; single-component SAMs (a) and mixed SAMs (b)): 11%; % ML 3 min (lysozyme; lysozyme, footnote b (30 minutes), single-component SAMs (a) and mixed SAMs (b)): 1%; % ML 3 min (lysozyme; [5]): 1%; dR/dt on (lysozyme; [5]): 85 RU/sec
NC(CCCO)(CCCO)CCCO [H2NC(CH2CH2CH2OH)3] | 70 | 14 ± 0.5 | 350 ± 220 | 34 ± 2.2 | 57 ± 0.2 | 140 ± 2 | 1400 ± 110 | 30 ± 0.6 | 73 ± 5 | 
COC(=O)CNC(=O)c1ccc(S(N)(=O)=O)cc1 [benzene sulfonamide 14, H2NSO2C6H4—CONHCH2CO2CH3, reference compound] |  |  |  |  |  |  |  |  |  | pKd (CA): 4.20; competitive inhibition of binding of CA to the mixed SAM presenting 13 ([2]; 1 mM added to the CA-containing solution): completely inhibited
NCCOCCOCCOCCOCCOCCOCC(=O)NCCCCCCNC(=O)c1ccc(S(N)(=O)=O)cc1 [compound 13, [6-(2-{2-[2-(2-{2-[2-(2-Amino-ethoxy)-ethoxy]-ethoxy}-ethoxy)-ethoxy]-ethoxy}-ethanoylamino)-hexyl]-4-sulfamoyl-benzamide] |  |  |  |  |  |  |  |  |  | reversibility of binding of CA ([2]; CA 5 μM in PBS, mixed SAM presenting 13): > 90%; kon ([2]; SPR, CA 5 μM in PBS, surfaces of this work (entry 4, LPEI entries 6-9)): 13000 M^-1S^-1; koff ([2]; SPR, surfaces of this work (entry 4, LPEI entries 6-9)): 0.0054 S^-1; nonspecific adsorption of protein [3]: did not adsorb a detectable amount of protein
H(CH3)NCH2CH(OCH3)2 | 70 | 15 ± 4 | 510 ± 400 | 16 ± 2 | 36 ± 1 | 190 ± 2 | 740 ± 300 | 4.6 ± 2 | 19 ± 5 | 
